Assay results reported in patent US20140303092A1 (CHIMERIX, INC., priority 2011, published 2014).

Assay: Study HDP-CDV-201: safety and tolerability (adverse events, laboratory abnormalities, discontinuations)
Type: in vivo, human (adult allogeneic HSCT recipients)
Conditions: for Subjects with Hemoglobin <6.5 g/dL / Subjects with Hemoglobin <8-6.5 g/dL / Subjects with Hemoglobin <10-8 g/dL / Subjects with Hemoglobin <LLN-10 g/dL / Subjects with Neutrophils <0.5 GI/L / Subjects with Neutrophils <1.0-0.5 GI/L / Subjects with Neutrophils <1.5-1 GI/L / Subjects with Neutrophils <LLN-1.5 GI/L / Subjects with Platelets <25 GI/L / Subjects with Platelets <50-25 GI/L / Subjects with Platelets <75-50 GI/L / Subjects with Platelets <LLN-75 GI/L / Subjects with Serum Creatinine >1 × ULN-[…] ULN / Subjects with Serum Creatinine >3 × ULN-6 × ULN / Subjects with Serum Creatinine >6 × ULN / Subjects with Serum Creatinine >[…] ULN-3 × ULN / Subjects with WBC <1 GI/L / Subjects with WBC <2-1 GI/L / Subjects with WBC <3-2 GI/L / Subjects with WBC <LLN-3 GI/L: any time during therapy
Procedure: Clinical Studies of HDP-CDV were performed and described in detail in the following Examples. For example, HDP-CDV-201 is a placebo-controlled, dose-escalating trial in HSCT CMV (R+) recipients, evaluating the ability of HDP-CDV to prevent or control CMV infection was carried out. Five cohorts were established in which participants or subjects received either placebo or the HDP-CDV orally, in doses ranging from 40 mg weekly (QW) to 200 mg twice weekly (BIW). Subjects who were post-HSCT were enrolled at the time of engraftment and randomized to HDP-CDV or placebo (3 to 1 ratio) and received blinded therapy until approximately 100 day post-transplantation. HDP-CDV doses were 40 mg QW, 100 mg QW, 200 mg QW, 200 mg BIW and 100 mg BIW. Escalation to the next dose was decided by the data monitoring committee after review of the safety data from the previous Cohort. Subjects who developed CMV disease or CMV infection requiring pre-emptive therapy with local standard of care were discontinued from blinded therapy and followed for 4 weeks. Subjects who completed treatment with blinded therapy were followed for 8 weeks post-therapy.
Data from Study HDP-CDV-201 also provided characterization of the safety and tolerability profile of HDP-CDV when administered for the prevention or control of CMV infection in high risk (R^+) post-HSCT adult subjects.
The Safety population (SAFETY) included all randomized subjects who took at least one dose of study treatment. This population was used to summarize safety outcomes based on the treatment actually received, in cases where a subject was treated contrary to the randomization schedule.
The safety and tolerability profile of HDP-CDV, including subject demographics and Baseline characteristics; the AE profile; and laboratory abnormalities of interest were analyzed in the cohorts followed in this investigation.
Subjects completing the treatment period received a full course of study medication; those completing the entire study attended visits through 8 weeks of follow up. Subjects who discontinued treatment may have done so for protocol specified reasons (e.g. development of clinically significant CMV infection requiring preemptive treatment with excluded anti-CMV medications) or for other reasons (e.g., withdrawal, adverse events, loss to follow-up). The disposition of subjects in Study HDP-CDV-201 during the double-blind, placebo-controlled treatment period (through Week 11) is listed by dosing Cohort in TABLE 23.
Adverse events were examined by severity to ensure that all safety signals were identified in this study population. Because of the frequency of events in HSCT recipients, particular attention was given to evaluation of Grade 3 […], 4 (severe), and 5 (fatal) adverse events.
Only those preferred terms for which at least one Grade 3 or higher event was experienced in any treatment group are listed. Cytomegalovirus-related AEs are excluded from this analysis.
HDP-CDV is a lipid conjugate of CDV. Because CDV is known to have adverse effects on renal function and bone marrow, decreased GFR and persistent neutropenia were identified as AEs of special interest. Key renal and hematological (TABLE 30) laboratory parameters were measured and listed below by Study HDP-CDV-201 treatment groups. TABLE 30 includes abnormal levels of serum creatinine, neutrophils, platelets, WBCs, and hemoglobin and includes data at Screening and during the treatment period.
A common metric for unit based dosing of medications is by weight (mg/kg). When the distribution of weights was examined for all subjects participating in the study, the median was 78 kg and the lower 25th percentile weight was approximately 65 kg, which translates to a cut-off of ˜3 mg/kg for a 200 mg total weekly dose. Based upon this approach, a cut-off of 3 mg/kg was used to assess the frequency of diarrhea and associated GI AEs reported for the subjects in Cohorts 3 or 4a (TABLE 40).

SMILES: CCCCCCCCCCCCCCCCOCCCOP(=O)(O)COC(CO)Cn1ccc(N)nc1=O (centres unmarked) [HDP-CDV]
- Outcome of hepatobiliary AE hyperbilirubinemia, subject 4080 (Cohort 4a): not recovered/not
- Outcome of hepatobiliary AE hyperbilirubinemia, subject 4090 (Cohort 4a): recovered/resolved
- Outcome of hepatobiliary AE worsening hyperbilirubinemia, subject 4109 (Cohort 4a): not recovered/not
- Relationship of hepatobiliary AE cholecystitis, subject 4058 (Cohort 4a): not related
- Relationship of hepatobiliary AE hyperbilirubinemia, subject 4080 (Cohort 4a): not related
- Relationship of hepatobiliary AE hyperbilirubinemia, subject 4090 (Cohort 4a): possibly related
- Relationship of hepatobiliary AE worsening hyperbilirubinemia, subject 4109 (Cohort 4a): not related
- frequency of SAEs involving the gastrointestinal tract (Cohort 4a (100 mg BIW)): 42%
- typical ALT increases relative to Baseline (Weeks 2 to 4 of dosing, doses of 200 mg per week or higher): 2-4 times Baseline
- subjects who discontinued study drug because of GI AEs (after introduction of the safety monitoring and management plan): ≤ 10%
- Grade 3 or 4 increases in creatinine (any dose): no Grade 3 or 4 increases in creatinine
- subjects who discontinued study drug due to GI AEs (any dose other than 200 mg BIW): less than 10%
- Subjects with Hemoglobin <6.5 g/dL (40 mg QW): 0
- Subjects with Hemoglobin <8-6.5 g/dL (40 mg QW): 1 (4.3%)
- Subjects with Hemoglobin <10-8 g/dL (40 mg QW): 11 (47.8%)
- Subjects with Hemoglobin <LLN-10 g/dL (40 mg QW): 10 (43.5%)
- Subjects with Neutrophils <0.5 GI/L (40 mg QW): 0
- Subjects with Neutrophils <1.0-0.5 GI/L (40 mg QW): 2 (8.7%)
- Subjects with Neutrophils <1.5-1 GI/L (40 mg QW): 5 (21.7%)
- Subjects with Neutrophils <LLN-1.5 GI/L (40 mg QW): 4 (17.4%)
- Subjects with Platelets <25 GI/L (40 mg QW): 4 (17.4%)
- Subjects with Platelets <50-25 GI/L (40 mg QW): 9 (39.1%)
- Subjects with Platelets <75-50 GI/L (40 mg QW): 4 (17.4%)
- Subjects with Platelets <LLN-75 GI/L (40 mg QW): 6 (26.1%)
- Subjects with Serum Creatinine >1 × ULN-[…] ULN (40 mg QW): 8 (34.8%)
- Subjects with Serum Creatinine >3 × ULN-6 × ULN (40 mg QW): 0
- Subjects with Serum Creatinine >6 × ULN (40 mg QW): 0
- Subjects with Serum Creatinine >[…] ULN-3 × ULN (40 mg QW): 2 (8.7%)
- Subjects with WBC <1 GI/L (40 mg QW): 0
- Subjects with WBC <2-1 GI/L (40 mg QW): 5 (21.7%)
- Subjects with WBC <3-2 GI/L (40 mg QW): 6 (26.1%)
- Subjects with WBC <LLN-3 GI/L (40 mg QW): 5 (21.7%)
- Subjects with Hemoglobin <6.5 g/dL (100 mg BIW): 1 (2.0%)
- Subjects with Hemoglobin <8-6.5 g/dL (100 mg BIW): 4 (8.0%)
- Subjects with Hemoglobin <10-8 g/dL (100 mg BIW): 27 (54.0%)
- Subjects with Hemoglobin <LLN-10 g/dL (100 mg BIW): 17 (34.0%)
- Subjects with Neutrophils <0.5 GI/L (100 mg BIW): 3 (6.0%)
- Subjects with Neutrophils <1.0-0.5 GI/L (100 mg BIW): 10 (20.0%)
- Subjects with Neutrophils <1.5-1 GI/L (100 mg BIW): 10 (20.0%)
- Subjects with Neutrophils <LLN-1.5 GI/L (100 mg BIW): 5 (10.0%)
- Subjects with Platelets <25 GI/L (100 mg BIW): 6 (12.0%)
- Subjects with Platelets <50-25 GI/L (100 mg BIW): 7 (14.0%)
- Subjects with Platelets <75-50 GI/L (100 mg BIW): 10 (20.0%)
- Subjects with Platelets <LLN-75 GI/L (100 mg BIW): 21 (42.0%)
- Subjects with Serum Creatinine >1 × ULN-[…] ULN (100 mg BIW): 16 (32.0%)
- Subjects with Serum Creatinine >3 × ULN-6 × ULN (100 mg BIW): 0
- Subjects with Serum Creatinine >6 × ULN (100 mg BIW): 0
- Subjects with Serum Creatinine >[…] ULN-3 × ULN (100 mg BIW): 10 (20.0%)
- Subjects with WBC <1 GI/L (100 mg BIW): 4 (8.0%)
- Subjects with WBC <2-1 GI/L (100 mg BIW): 8 (16.0%)
- Subjects with WBC <3-2 GI/L (100 mg BIW): 12 (24.0%)
- Subjects with WBC <LLN-3 GI/L (100 mg BIW): 11 (22.0%)
- Subjects with Hemoglobin <6.5 g/dL (100 mg QW): 1 (3.7%)
- Subjects with Hemoglobin <8-6.5 g/dL (100 mg QW): 1 (3.7%)
- Subjects with Hemoglobin <10-8 g/dL (100 mg QW): 12 (44.4%)
- Subjects with Hemoglobin <LLN-10 g/dL (100 mg QW): 12 (44.4%)
